Laboratory results published in patent publication US7538193B2, “NO-modified hemoglobins and uses therefor” (Duke University, priority 1995, dated 2009).

How the values were obtained:
[1] = test system: substantia nigra, caudate putamen nucleus and parietal cortex of Sprague-Dawley rats; assay: O2-dependent local cerebral blood flow in rats (Example 25); format: in vivo, rat; settings: 1 μmol/kg infused over 3 minutes
Description: Adult male Sprague-Dawley rats (290-350 g) were anesthetized with sodium pentobarbital (50 mg/kg IP), intubated and ventilated with a small animal respirator (Edco Scientific Inc., Chapel Hill, N.C.) at a rate and tidal volume to maintain normal values of PaCO2 (35-45 mm Hg; PaCO2=systemic arterial blood carbon dioxide tension). The femoral vein and artery were cannulated for infusion of drugs and for continuous monitoring of systemic blood pressure, respectively. Aliquots of arterial blood (200 μl) were drawn periodically to measure blood gas tensions and pH (Instrumentation Laboratory Co., model 1304 blood gas/pH analyzer). The blood was replaced intravenously with three volumes of normal saline. The inspired O2 concentration was varied using premixed gases balanced with nitrogen. The tissue PO2 was measured continuously with polarographic platinum microelectrodes (50 μm O.D. coated with hydrophobic gas permeable Nafion) implanted stereotaxically in both the right and left hippocampus (AP-3.4 mm, ML+2.2 mm), caudate putamen nucleus and substantia nigra (see coordinates below) (Young, W., Stroke, 11:552-564 (1980); Heiss, W. D. and Traupett, H., Stroke, 12:161-167 (1981); Dewhirst, M. W. et al., Cancer Res., 54:3333-3336 (1994); Kerger, H. et al., Am. J. Physiol., 268:H802-H810 (1995)). The PO2 electrodes were polarized to −0.65V against a distant Ag/AgCl reference located on the tail and the current flow was measured using a low-impedance nA-meter. Regional arterial PO2 was adjusted by changing the inspired O2 concentration and atmospheric pressure.
Polarographic hydrogen (H2)-sensitive microelectrodes were implanted stereotaxically in the substantia nigra (AP −5.3 mm, ML −2.4 mm to the bregma, depth 3.2 mm), caudate putamen nucleus (CPN) (AP +0.8 mm, ML −2.5 mm, depth 5.2 mm) and parietal cortex, for measurement of regional blood flow (Young, W., Stroke, 11:552-564 (1980); Heiss, W. D. and Traupett, H., Stroke, 12:161-167 (1981)). The microelectrodes were made from platinum wire and insulated with epoxy, with the exception of the tip (1 mm) which was coated with Nafion. For placement, the electrodes were mounted on a micromanipulator and the rat's head was immobilized in a Kopf stereotaxic frame. H2-sensitive electrodes were polarized to +400 mV against a distant reference electrode on the tail, and the polarographic current was measured using a low-impedance nA meter during and after the inhalation of hydrogen gas (2.5%) for 1 min. Both the hydrogen clearance curves and voltage for oxygen measurements were made using PC WINDAQ (software, DI-200 AC, Dataq Instruments, Inc., Akron, Ohio). Cerebral blood flow was calculated using the initial slope method (Young, W., Stroke, 11:552-564 (1980); Heiss, W. D. and Traupett, H., Stroke, 12:161-167 (1981)). Regional blood flow responses were monitored for 30 min. prior to and 30 min. following drug administration; hemoglobins were given at time 0.
The cerebrovascular effects of SNO-Hb were measured in adult male Sprague-Dawley rats using O2 and H2 (blood flow)-sensitive microelectrodes that were placed stereotaxically in several regions of the brain as for Example 24.

[2] = test system: rabbit thoracic aortic rings, endothelium removed; assay: Oxygen-dependent vessel ring bioassay (Examples 22, 23); format: cell-based
[3] = test system: rabbit thoracic aorta rings; assay: Rabbit aortic ring bioassay: vessel tone and ACh (EDRF)-mediated relaxation; format: cell-based; settings: 1 μM addition; ACh-mediated relaxation of rabbit aortic ring
From the text: The effects of native Hb on EDRF responses were compared with Hb preparations in which the thiol or heme centers had been blocked by alkylation or cyanmet derivitization, respectively. All preparations of Hb elicited contractions; however, those of native Hb (in which both SH and metal centers are free for interaction) were most pronounced. […] Relaxations were inhibited to lesser degrees by cyanmet Hb (CN-Hb) (in which hemes were blocked from reaction) and NEM-Hb (in which thiol groups were alkylated by N-ethylmaleimide). […] Direct measurement of SNO-Hb, formed from EDRF under similar conditions, is described in Example 8.
Descending rabbit thoracic aorta were cut into 3 mm rings and mounted on stirrups attached to force transducers (model FT03, Grass Instruments, Quincy, Mass.) for measurement of isometric tone. The details of this bioassay system have been previously described (Stamler, J. S., et al., Proc. Natl. Acad. Sci. USA, 89:444-448 (1992)). Cyanmet Hb was prepared from human HbA according to published protocols (Kilbourn, R. G. et al. Biochem. Biophys. Res. Comm., 199:155-162, (1994)). Alkylation of HbA with N-ethylmaleimide was followed by desalting across G-25 Sephadex to remove excess NEM. Removal of unmodified Hbcysβ93 was achieved by passage through Hg-containing affinity columns. The alkylation of free SH groups was verified using 5,5′-dithio-bis[2-nitrobenzoic acid].

[4] = test system: rat brain (caudatoputamen nucleus); assay: Brain blood flow in rats by H2 clearance (Example 12); format: in vivo; settings: rats breathing 21% O2; 100 or 1000 nmol/kg
Description: SNO-Hb(FeII)O2, having a SNO/Hb ratio of 2, was prepared (from HbA0) by reaction with S-nitrosothiol. Rats breathing 21% O2 were injected (time 0) with Hbs prepared from HbA0 as indicated in FIG. 10 (open circles, SNO-Hb (100 nmol/kg); filled circles, SNO-Hb (1000 nmol/kg); filled squares, unmodified Hb (1000 nmol/kg)). Three rats were used per experiment. Blood flow was measured in brain using the H2 clearance method; microelectrodes were placed in the brain stereotactically. […] NO group release is promoted by local tissue hypoxia.

Hb: native, underivatized human hemoglobin A purified from red cells
local cerebral blood flow ([1]; 21% O2): decreased local blood flow | local cerebral blood flow ([1]; 100% O2 + 3 ATA): tended to decrease cerebral flow to similar extents | local cerebral blood flow ([1]; 100% O2): preserved | effect on vessel tone ([2]; 1 μM, rings contracted with phenylephrine under hypoxic conditions (6-7 torr)): progressive increases in vessel tone | effect of 10 μM glutathione on the response ([2]; 10 μM glutathione in bioassay chambers): no effect | effect on vessel tension ([2]; 95% O2 or 21% O2 (R-structure)): contract blood vessels | effect on vessel tension ([2]; <1% O2 (~6 torr), T-structure): strongly contracts blood vessels | % ACh RELAXATION [3]: 31.9 ± 6.9 (n = 7) % | blood flow to the brain [4]: decreases blood flow
